Reference: patent US6448204B1, “Herbicidal 2-aryloxy-4-methyl-6-pyrazol-1-yl-pyridines” (BASF Aktiengesellschaft, priority 1999, dated 2002)

Key:
Type in all cases: in vivo
[1] = tested on: Cassia obtusifolia (CASOB); assay: Pre-emergence test; settings: 3 weeks after treatment
Protocol: (§1) To evaluate their herbicidal activity, compounds according to the invention are tested using a representative range of plants: […] The pre-emergence tests involve spraying a liquid formulation of the compound onto the soil in which the seeds of the plant species mentioned above has recently been sown. The soil used in the tests is a prepared horticultural loam. […] In these tests untreated sown soil are used as controls.

[2] = tested on: Lamium purpureum (LAMPU); assay: Pre-emergence test; settings: 3 weeks after treatment
Protocol: as §1

[3] = tested on: Galium aparine (GALAP); assay: Pre-emergence test; settings: 3 weeks after treatment
Protocol: as §1

[4] = tested on: Echinochloa crus-galli (ECHCG); assay: Pre-emergence test; settings: 3 weeks after treatment
Protocol: as §1

[5] = tested on: Ambrosia artemisifolia (AMBEL); assay: Pre-emergence test; settings: 3 weeks after treatment
Protocol: as §1

[6] = tested on: Ipomoea hederacea (IPOHE); assay: Pre-emergence test; settings: 3 weeks after treatment
Protocol: as §1

[7] = tested on: Lolium multiflorum (LOLMU); assay: Pre-emergence test; settings: 3 weeks after treatment
Protocol: as §1

[8] = tested on: Alopecurus myosuroides (ALOMY); assay: Pre-emergence test; settings: 3 weeks after treatment
Protocol: as §1

[9] = tested on: Zea mays (ZEAMX); assay: Pre-emergence test; settings: for Assessment rating ZEAMX (pre-emergence application): crop (corn), 3 weeks after treatment
Protocol: as §1

[10] = tested on: Matricaria inodora (MATIN); assay: Pre-emergence test; settings: 3 weeks after treatment
Protocol: as §1

[11] = tested on: Abutilon theophrasti (ABUTH); assay: Pre-emergence test; settings: 3 weeks after treatment
Protocol: as §1

[12] = tested on: thirteen weed species (broadleaf weeds and grasses); assay: Pre-emergence test, summary over all weeds; settings: for Number of weed species well / sufficiently controlled: out of thirteen species
Protocol: as §1

[13] = tested on: weed species; assay: Post-emergence test, summary over all weeds
Protocol: To evaluate their herbicidal activity, compounds according to the invention are tested using a representative range of plants:
These acetone solutions are diluted with water and the resulting formulations applied at dosage levels equivalent of about 0.025 to 0.4 kg per hectare of test compound per pot. After spraying the plants are placed on greenhouse benches and are cared for in the usual manner, commensurate with conventional greenhouse practices. From 2 to 4 weeks after treatment, the seedling plants are examined and rated according to the rating system provided above.

- Assessment rating ZEAMX (pre-emergence application) ([9]; 0.013 kg/ha): 0 (0 - No effect)
- Assessment rating ZEAMX (pre-emergence application) ([9]; 0.025 kg/ha): 1 (1 - Trace effect)
- Assessment rating ZEAMX (pre-emergence application) ([9]; 0.100 kg/ha): 2 (2 - Slight effect)
- Selectivity in maize ([9]; pre-emergence, 0.100 kg/ha): Good selectivity in maize
Compound: Cc1cc(Oc2cc(C(F)(F)F)nn2C)nc(-n2ccc(C(F)(F)F)n2)c1 [Example 2, 4-methyl-2-(-3-trifluoromethyl-1H-prazol-1-yl)-6-(1-methyl-3-trifluoromethyl-pyrazol-5-yloxy)-pyridine]
- Assessment rating CASOB (pre-emergence application) ([1]; 0.013 kg/ha): 0 (0 - No effect)
- Assessment rating CASOB (pre-emergence application) ([1]; 0.025 kg/ha): 4 (4 - Injury)
- Assessment rating CASOB (pre-emergence application) ([1]; 0.100 kg/ha): 8 (8 - Approaching complete kill)
- Assessment rating CASOB (pre-emergence application) ([1]; 0.400 kg/ha): 9 (9 - Complete kill)
- Assessment rating LAMPU (pre-emergence application) ([2]; 0.013 kg/ha): 8 (8 - Approaching complete kill)
- Assessment rating LAMPU (pre-emergence application) ([2]; 0.025 kg/ha): 8 (8 - Approaching complete kill)
- Assessment rating LAMPU (pre-emergence application) ([2]; 0.100 kg/ha): 9 (9 - Complete kill)
- Assessment rating LAMPU (pre-emergence application) ([2]; 0.400 kg/ha): 9 (9 - Complete kill)
- Assessment rating GALAP (pre-emergence application) ([3]; 0.013 kg/ha): 1 (1 - Trace effect)
- Assessment rating GALAP (pre-emergence application) ([3]; 0.025 kg/ha): 3 (3 - Moderate effect)
- Assessment rating GALAP (pre-emergence application) ([3]; 0.100 kg/ha): 6 (6 - Herbicidal effect)
- Assessment rating GALAP (pre-emergence application) ([3]; 0.400 kg/ha): 8 (8 - Approaching complete kill)
- Assessment rating ECHCG (pre-emergence application) ([4]; 0.013 kg/ha): 1 (1 - Trace effect)
- Assessment rating ECHCG (pre-emergence application) ([4]; 0.025 kg/ha): 2 (2 - Slight effect)
- Assessment rating ECHCG (pre-emergence application) ([4]; 0.100 kg/ha): 8 (8 - Approaching complete kill)
- Assessment rating ECHCG (pre-emergence application) ([4]; 0.400 kg/ha): 8 (8 - Approaching complete kill)
- Assessment rating AMBEL (pre-emergence application) ([5]; 0.013 kg/ha): 4 (4 - Injury)
- Assessment rating AMBEL (pre-emergence application) ([5]; 0.025 kg/ha): 7 (7 - Good herbicidal effect)
- Assessment rating AMBEL (pre-emergence application) ([5]; 0.100 kg/ha): 8 (8 - Approaching complete kill)
- Assessment rating AMBEL (pre-emergence application) ([5]; 0.400 kg/ha): 9 (9 - Complete kill)
- Assessment rating IPOHE (pre-emergence application) ([6]; 0.013 kg/ha): 1 (1 - Trace effect)
- Assessment rating IPOHE (pre-emergence application) ([6]; 0.025 kg/ha): 3 (3 - Moderate effect)
- Assessment rating IPOHE (pre-emergence application) ([6]; 0.100 kg/ha): 6 (6 - Herbicidal effect)
- Assessment rating IPOHE (pre-emergence application) ([6]; 0.400 kg/ha): 9 (9 - Complete kill)
- Assessment rating LOLMU (pre-emergence application) ([7]; 0.013 kg/ha): 6 (6 - Herbicidal effect)
- Assessment rating LOLMU (pre-emergence application) ([7]; 0.025 kg/ha): 6 (6 - Herbicidal effect)
- Assessment rating LOLMU (pre-emergence application) ([7]; 0.100 kg/ha): 8 (8 - Approaching complete kill)
- Assessment rating LOLMU (pre-emergence application) ([7]; 0.400 kg/ha): 8 (8 - Approaching complete kill)
- Assessment rating ALOMY (pre-emergence application) ([8]; 0.013 kg/ha): 2 (2 - Slight effect)
- Assessment rating ALOMY (pre-emergence application) ([8]; 0.025 kg/ha): 5 (5 - Definite injury)
- Assessment rating ALOMY (pre-emergence application) ([8]; 0.100 kg/ha): 8 (8 - Approaching complete kill)
- Assessment rating ALOMY (pre-emergence application) ([8]; 0.400 kg/ha): 8 (8 - Approaching complete kill)
- Assessment rating ZEAMX (pre-emergence application) ([9]; 0.400 kg/ha): 4 (4 - Injury)
- Assessment rating MATIN (pre-emergence application) ([10]; 0.013 kg/ha): 7 (7 - Good herbicidal effect)
- Assessment rating MATIN (pre-emergence application) ([10]; 0.025 kg/ha): 8 (8 - Approaching complete kill)
- Assessment rating MATIN (pre-emergence application) ([10]; 0.100 kg/ha): 9 (9 - Complete kill)
- Assessment rating MATIN (pre-emergence application) ([10]; 0.400 kg/ha): 9 (9 - Complete kill)
- Assessment rating ABUTH (pre-emergence application) ([11]; 0.013 kg/ha): 1 (1 - Trace effect)
- Assessment rating ABUTH (pre-emergence application) ([11]; 0.025 kg/ha): 3 (3 - Moderate effect)
- Assessment rating ABUTH (pre-emergence application) ([11]; 0.100 kg/ha): 8 (8 - Approaching complete kill)
- Assessment rating ABUTH (pre-emergence application) ([11]; 0.400 kg/ha): 9 (9 - Complete kill)
- Herbicidal activity, overall judgement [12]: excellent activity on both broadleaf weeds and grasses
- Rate required to obtain the same level of weed control [12]: 0.100 kg/ha
- Number of weed species well / sufficiently controlled ([12]; 0.100 kg/ha): eleven out of thirteen species
- Number of weed species well / sufficiently controlled ([12]; 0.400 kg/ha): all of the thirteen weed species
- Number of weed species controlled ([13]; 0.100 kg/ha): twelve weed species
- Herbicidal activity, overall judgement ([13]; versus known compound of the prior art): clearly superior activity
